Measurements: a compilation of properties of binary mixtures (doi:10.1080/01932691.2021.1974876)

Assay: xn = mol fraction of the nth substance listed
Conditions: 100 kPa

CO + CC[n+]1ccn(C)c1.N#C[S-]
x2 = 0
Conditions | viscosity [mPa·s]
293.15 K | 0.59
303.15 K | 0.51
308.15 K | 0.48
313.15 K | 0.45
323.15 K | 0.41

CC[n+]1ccn(C)c1.N#C[S-] + CO
Conditions | electrical conductivity [S/m] | viscosity [mPa·s]
293.15 K, x1 = 0.0988 | 1.83 | 2.9
293.15 K, x1 = 0.1966 | 2.24 | 5
293.15 K, x1 = 0.3005 | 2.25 | 7.5
293.15 K, x1 = 0.3859 | 2.16 | 9.5
293.15 K, x1 = 0.5006 | 2 | 12.3
293.15 K, x1 = 0.5972 | 1.87 | 14.9
293.15 K, x1 = 0.6996 | 1.76 | 18
293.15 K, x1 = 0.804 | 1.68 | 21
293.15 K, x1 = 0.8997 | 1.64 | 24
293.15 K, x1 = 1 | 1.64 | 27
298.15 K, x1 = 0.0988 | 2.08 | 2.5
298.15 K, x1 = 0.1966 | 2.44 | 4.4
298.15 K, x1 = 0.3005 | 2.45 | 6.4
298.15 K, x1 = 0.3859 | 2.36 | 8.1
298.15 K, x1 = 0.5006 | 2.2 | 10.6
298.15 K, x1 = 0.6996 | 1.96 | 15.2
298.15 K, x1 = 0.804 | 1.88 | 18
298.15 K, x1 = 0.8997 | 1.84 | 20
298.15 K, x1 = 1 | 1.83 | 23
303.15 K, x1 = 0.0988 | 2.34 | 2.1
303.15 K, x1 = 0.1966 | 2.67 | 3.8
303.15 K, x1 = 0.3005 | 2.66 | 5.5
303.15 K, x1 = 0.5006 | 2.42 | 9.1
303.15 K, x1 = 0.5972 | 2.29 | 11
303.15 K, x1 = 0.6996 | 2.18 | 13.1
303.15 K, x1 = 0.804 | 2.1 | 15.3
303.15 K, x1 = 0.8997 | 2.05 | 18
308.15 K, x1 = 0.1966 | 2.89 | 3.3
308.15 K, x1 = 0.3005 | 2.88 | 4.8
308.15 K, x1 = 0.3859 | 2.81 | 6.1
308.15 K, x1 = 0.5972 | 2.52 | 9.6
308.15 K, x1 = 0.6996 | 2.41 | 11.4
308.15 K, x1 = 0.804 | 2.33 | 13.4
308.15 K, x1 = 0.8997 | 2.29 | 15.5
313.15 K, x1 = 0.0988 | 2.82 | 1.7
313.15 K, x1 = 0.1966 | 3.12 | 2.9
313.15 K, x1 = 0.3005 | 3.12 | 4.2
313.15 K, x1 = 0.3859 | 3.04 | 5.3
313.15 K, x1 = 0.5006 | 2.89 | 6.9
313.15 K, x1 = 0.5972 | 2.77 | 8.3
313.15 K, x1 = 0.6996 | 2.66 | 10
313.15 K, x1 = 0.804 | 2.58 | 11.7
313.15 K, x1 = 0.8997 | 2.54 | 13.5
313.15 K, x1 = 1 | 2.52 | 15.4
318.15 K, x1 = 0.0988 | 3.06 | 1.5
318.15 K, x1 = 0.1966 | 3.4 | 2.5
318.15 K, x1 = 0.3005 | 3.4 | 3.6
318.15 K, x1 = 0.3859 | 3.31 | 4.6
318.15 K, x1 = 0.5006 | 3.15 | 6
318.15 K, x1 = 0.5972 | 3.04 | 7.3
318.15 K, x1 = 0.6996 | 2.93 | 8.8
318.15 K, x1 = 0.804 | 2.85 | 10.3
318.15 K, x1 = 0.8997 | 2.81 | 11.9
318.15 K, x1 = 1 | 2.79 | 13.6
323.15 K, x1 = 0.0988 | 3.31 | 1.35
323.15 K, x1 = 0.3859 | 3.6 | 4
323.15 K, x1 = 0.5006 | 3.4 | 5.3
323.15 K, x1 = 0.5972 | 3.3 | 6.4
323.15 K, x1 = 0.6996 | 3.22 | 7.7
